Reference: patent publication US12534469B2 (CHILDREN'S HOSPITAL MEDICAL CENTER, priority 2020, dated 2026)
Residue numbers refer to the chain shown, from its start.

Columns and labels:
[1] = target: T1, FLT3 (Homo sapiens, UniProt P36888); assay: DiscoverX KINOMEscan competition binding assay, FLT3
T1 construct: using full-length kinases in the presence of cellular concentrations of ATP in live, uncompromised cells; assay by Reaction Biology; host or cells: HEK-293 (ATCC), transient transfection
T1 sequence (P36888 27-993): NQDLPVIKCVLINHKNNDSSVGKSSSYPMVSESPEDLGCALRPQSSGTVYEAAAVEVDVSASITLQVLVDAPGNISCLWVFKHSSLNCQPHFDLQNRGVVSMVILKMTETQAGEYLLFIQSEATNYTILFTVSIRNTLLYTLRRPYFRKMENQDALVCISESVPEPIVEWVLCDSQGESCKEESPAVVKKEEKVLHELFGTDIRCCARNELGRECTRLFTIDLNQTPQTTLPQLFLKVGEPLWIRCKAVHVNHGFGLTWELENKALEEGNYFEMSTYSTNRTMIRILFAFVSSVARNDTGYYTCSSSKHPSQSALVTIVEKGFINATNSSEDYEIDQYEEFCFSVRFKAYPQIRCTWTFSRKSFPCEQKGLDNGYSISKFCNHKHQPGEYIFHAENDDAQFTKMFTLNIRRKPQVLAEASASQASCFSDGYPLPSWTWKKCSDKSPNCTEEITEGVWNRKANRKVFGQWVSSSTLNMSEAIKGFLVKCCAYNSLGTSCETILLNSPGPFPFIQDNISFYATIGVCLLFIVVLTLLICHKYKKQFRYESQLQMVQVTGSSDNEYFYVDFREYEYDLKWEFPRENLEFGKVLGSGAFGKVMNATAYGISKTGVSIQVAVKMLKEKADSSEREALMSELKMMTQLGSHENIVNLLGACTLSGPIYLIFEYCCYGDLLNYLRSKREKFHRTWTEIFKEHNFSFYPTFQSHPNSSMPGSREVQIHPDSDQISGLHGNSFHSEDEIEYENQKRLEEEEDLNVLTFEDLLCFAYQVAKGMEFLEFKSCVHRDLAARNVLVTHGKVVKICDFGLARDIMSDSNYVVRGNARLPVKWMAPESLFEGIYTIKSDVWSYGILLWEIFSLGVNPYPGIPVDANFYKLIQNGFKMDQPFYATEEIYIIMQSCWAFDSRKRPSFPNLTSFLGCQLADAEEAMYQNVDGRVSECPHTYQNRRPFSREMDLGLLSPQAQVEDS
Excerpt: (§1) Kinase binding data were obtained for various exemplary compounds prepared according to Examples 1-25 using the DiscoverX KINOMEscan® active site-directed competition binding site-directed assay protocol described below. […] As a result, the data report thermodynamic interaction affinities (Kd values), rather than IC50 values that are dependent on ATP concentrations. The assay uses a DNA-tagged version of the protein kinase, and an immobilized ligand bound to a solid support. Compounds that directly or indirectly prevent kinase binding to the immobilized ligand reduce the amount of kinase captured on the solid support, which is detected using an ultra-sensitive qPCR method. Affinity constants reported from the assay have been reported to be independent of the immobilized ligand used that is coupled to the solid support (See supplemental information in Fabian, M. A. et. al., (2005) Nat. Biotechnol. 23, 329-336; Wodicka, L. M. et. al., (2010) Chem. Biol. 17, 1241-1249.)
(§2) Kinase-tagged T7 phage strains were prepared in an E. coli host derived from the BL21 strain. E. coli were grown to log-phase and infected with T7 phage and incubated with shaking at 32° C. until lysis. The lysates were centrifuged and filtered to remove cell debris. The remaining kinases were produced in HEK-293 cells and subsequently tagged with DNA for qPCR detection. […] The liganded beads were blocked with excess biotin and washed with blocking buffer (SeaBlock (Pierce), 1% BSA, 0.05% Tween 20, 1 mM DTT) to remove unbound ligand and to reduce non-specific binding. […] Test compounds were prepared as 111× stocks in 100% DMSO. Kds were determined using an 11-point 3-fold compound dilution series with three DMSO control points. […] The compounds were then diluted directly into the assays such that the final concentration of DMSO was 0.9%. All reactions were performed in polypropylene 384-well plates. Each was a final volume of 0.02 mL. […] The kinase concentration in the eluates was measured by qPCR.
(§3) Binding constants (Kds) were calculated with a standard dose-response curve using the Hill equation. […]

[2] = target: T2, FLT3 N841I (Homo sapiens, UniProt P36888, N841I); assay: DiscoverX KINOMEscan competition binding assay, FLT3 N841I
T2 construct: purchased DiscoverX (KINOMEscan); host or cells: E. coli (T7 phage) or HEK-293
T2 sequence (P36888 27-993 N841I): T1 sequence (P36888 27-993) with N815I
Excerpt: as §1, §2, §3

| Kd [1] [pM] | Kd [2] [pM] | SMILES |
| --- | --- | --- |
| 190 | 550 | COc1cc2ncc(-c3cccc(N[C@@H]4CCNC4)n3)n2nc1C1CC1 [Compound 97, (R)-6-(6-cyclopropyl-7-methoxyimidazo[1,2-b]pyridazin-3-yl)-N-(pyrrolidin-3-yl)pyridin-2-amine] |
| 310 | 910 | COc1cc2ncc(-c3cccc(N[C@H]4CNC[C@@H]4F)n3)n2nc1C1CC1 [Compound 96, 6-(6-cyclopropyl-7-methoxyimidazo[1,2-b]pyridazin-3-yl)-N-((3S,4S)-4-fluoropyrrolidin-3-yl)pyridin-2-amine] |
| 130 | 360 | COc1cc2ncc(-c3cccc(N[C@H]4CNCC[C@@H]4F)n3)n2nc1C1CC1 [Compound 102, 6-(6-cyclopropyl-7-methoxyimidazo[1,2-b]pyridazin-3-yl)-N-((3S,4S)-4-fluoropiperidin-3-yl)pyridin-2-amine] |
